In US8729009B2, “Lysine compounds and their use in site- and chemoselective modification of peptides and proteins” (Stichting Het Nederlands Kanker Instituut, priority 2009, dated 2014):

Assay: Solubility of the thiolysine-modified peptides in the ligation buffer
Assay type: physicochemical
Conditions: Tris-HCl pH 7.5 buffer used during the ligation reaction
Source text: This is not surprising as this peptide is made up for ≈50% of hydrophobic amino acids and contains 3 beta-strands in the native PCNA protein (see Supporting Information). Besides performing the ubiquitin ligations with an excess of peptide (rxn 1-3 and 6-16, FIGS. 6 and 7), it was also observed that the use of (roughly) equimolar amounts of ubiquitin and peptide (rxn 4, 5 FIG. 6 and FIGS. 8-10) allowed ligation. In order to be able to develop the here presented ligation methodology for solid phase peptide synthesis, with the peptide being anchored to the solid support, it is important to fully consume all peptide. In order to confirm that a polar organic solvent is compatible with the reaction conditions, we repeated the ubiquitin ligation of the H2B peptide TKAVTK*YTSSK, using a DMSO stock of the peptide, up to a final concentration of 10% DMSO (rxn 14-16, FIG. 7).

Substance: GDAWISC*AK*DGVKFSASGELGNGNIKLSQ [Peptide 1]
- solubility: only soluble in polar organic solvents such as DMF and DMSO
